{"source": "patent US20230274811A1", "about": "“METHODS OF MAKING PROSTATE CANCER TREATMENT DECISIONS” (Progenics Pharmaceuticals, Inc., priority 2020, published 2023)", "key": {"[1]": {"test": "OSPREY safety (adverse events)", "assay_type": "in vivo, men", "procedure": "The coprimary endpoints of sensitivity and specificity of ^18F-DCFPyL PET/CT for detecting pelvic lymph node metastases were evaluated in Cohort A. Secondary endpoints included safety in both cohorts, positive predictive value (PPV) and negative predictive value (NPV) in Cohort A, and sensitivity and PPV in Cohort B. Three central, blinded, and independent readers evaluated the ^18F-DCFPyL scans. Histopathology served as the reference standard to which imaging findings were compared. FIG. 1 provides information regarding the study design and cohorts.\nCo-primary endpoints of specificity and sensitivity of ^18F-DCFPyL PET/CT for detecting prostate cancer metastases in pelvic lymph nodes were evaluated in Cohort A. Key secondary endpoints included incidence of adverse events, positive predictive value (PPV) and negative predictive value (NPV) of ^18F-DCFPyL PET/CT imaging to detect pelvic lymph node metastases in Cohort A, sensitivity and PPV of ^18F-DCFPyL PET/CT imaging to detect prostate cancer within sites of metastasis or recurrence in Cohort B. Three central, blinded, and independent readers evaluated the ^18F-DCFPyL scans. Imaging findings were compared to histopathology as the truth standard.\nPts underwent image-guided biopsy."}, "[2]": {"test_system": "PSMA-positive PC3 PIP tumor", "test": "Uptake in mouse xenografts", "assay_type": "in vivo", "conditions": "PSMA-positive PC3 PIP vs PSMA-negative PC3 flu tumors"}, "[3]": {"test": "CONDOR safety (adverse events)", "assay_type": "in vivo, men", "from_the_text": "Pre- and post-treatment assessments also included vital signs and concomitant medications/procedures."}, "[4]": {"test_system": "primary tumor in the gland", "test": "OSPREY Cohort A: 18F-DCFPyL PET/CT detection of primary tumor in the prostate gland vs surgical pathology", "assay_type": "in vivo, men", "from_the_text": "Sensitivity, specificity, PPV and NPV of ^18F-DCFPyL PET/CT for detecting primary tumor in the gland and pelvic lymph node metastases were compared to conventional imaging (CI), either CT or MRI. Three central, blinded, and independent readers evaluated the ^18F-DCFPyL scans and one blinded central reader interpreted the CI. Imaging results were compared to surgical pathology as the truth standard."}}, "note": "“Also recorded” adds a separate entry of the source. Like-named read-outs stand apart in the source and are kept apart here."}
{"smiles": "O=C(O)CC[C@H](NC(=O)N[C@@H](CCCCNC(=O)c1ccc([18F])nc1)C(=O)O)C(=O)O", "note": "[18F-DCFPyL, 2-(3-{1-carboxy-5-[(6-[^18F]fluoro-pyridine-3-carbonyl)-amino]-pentyl}ureido)-pentanedioic acid]", "values": [{"measurement": "drug-related serious adverse events", "setting": "[1]; 385 men, both cohorts", "value": "No drug-related serious adverse events were observed"}, {"measurement": "dysgeusia, drug-related AE incidence", "setting": "[1]; 385 men, both cohorts", "value": 2.1, "unit": "%"}, {"measurement": "headache, drug-related AE incidence", "setting": "[1]; 385 men, both cohorts", "value": 2.1, "unit": "%"}, {"measurement": "men with ≥1 drug-related adverse event", "setting": "[1]; 385 men, both cohorts", "value": 7.0, "unit": "%"}, {"measurement": "severity of drug-related AEs (dysgeusia and generalized rash)", "setting": "[1]; Cohort B", "value": "mild (Grade 1)"}, {"measurement": "pts with ≥1 drug-related AE", "setting": "[1]; Cohort B, 117 men", "value": 1.7, "unit": "%"}, {"measurement": "tolerability", "setting": "[1]; OSPREY", "value": "generally well tolerated"}, {"measurement": "uptake in mouse xenografts", "setting": "[2]", "value": "taken up only in PSMA-positive PC3 PIP tumor and not in PSMA-negative PC3 flu tumors"}, {"measurement": "patients experiencing AEs", "setting": "[3]; 14 patients, 21 AEs", "value": 6.7, "unit": "%"}, {"measurement": "drug-related serious adverse event", "setting": "[3]; 208 men", "value": "A single serious adverse event (AE) was reported as related to study drug (hypersensitivity); also recorded: hypersensitivity was the single drug-related Grade 3 AE"}, {"measurement": "fatigue, AE incidence", "setting": "[3]; 208 men", "value": 1.0, "unit": "%"}, {"measurement": "headache, AE incidence", "setting": "[3]; 208 men", "value": 1.9, "unit": "%"}, {"measurement": "hypertension, AE incidence", "setting": "[3]; 208 men", "value": 1.0, "unit": "%"}, {"measurement": "drug-related serious adverse event", "setting": "[3]; 208 men, listed as PyL", "value": "one drug-related SAE (hypersensitivity)"}, {"measurement": "tolerability", "setting": "[3]; CONDOR", "value": "well tolerated"}, {"measurement": "Grade 4 AEs, deaths, AEs leading to discontinuation", "setting": "[3]; in vivo", "value": "There were no Grade 4 AEs, nor were there deaths or AEs that led to discontinuation of the study"}, {"measurement": "changes in vital signs pre- to post-dosing", "setting": "[3]; in vivo", "value": "No clinically relevant changes in vital signs were observed"}, {"measurement": "patients with Grade 3, serious AEs (hypersensitivity, headache, paresthesia)", "setting": "[3]; one patient", "value": 0.5, "unit": "%"}, {"measurement": "AEs in case studies 1-3", "setting": "[3]; single patients", "value": "No AEs were reported"}, {"measurement": "PPV, median of 3 readers", "setting": "[4]", "value": "100% (0.98, 1.0)"}, {"measurement": "Sensitivity, median of 3 readers", "setting": "[4]", "value": "98.0% (0.96, 1.0)"}, {"measurement": "Sensitivity, median of 3 readers", "setting": "[4]; listed as PyL", "value": 98, "unit": "%"}]}
